Here are results for 7 sequences from patent publication US20020081566A1, “HIV PROTEIN EPITOPES IMMUNOLOGICALLY HOMOLOGOUS TO HLA” (priority 1992, published 2002).

The target of one assay is T1, viral gp160 (Human immunodeficiency virus type 1 group M subtype B, UniProt P03377).
T1 construct: purchased SORIN BIOMEDICA, Saluggia, Italy
The assay is classed as binding, HIV. The note with it: for binding to viral gp160 of AIDS serum antibodies pre-adsorbed on the peptide and eluted: sera from AIDS affected subjects, HIV western blot stripes, FIGS. 5 and 6; for reactivity of sera / antibodies raised against native gp160 in HIV positive subjects with the peptide region: sera from HIV positive subjects. Here is the method: Sera from AIDS affected subjects are immunoadsorbed on columns of either S. MAP HIV, or MAP HLA 11 or MAP HLA 12 peptide coupled Sepharose (CNBR activated sepharose 4B from […]) and eluted. 1 ml of Sepharose/peptide equilibrated with 0.1 M TRIS HCl pH 8 and 0.5 M NaCl buffer is incubated for 16 hours with 100 μl of serum, washed with 0.1 M TRIS HCl ph 8 and 0.5 M NaCl. The bound antibodies are eluted with a buffer containing 0.2 M glycine pH 2 and 0.5 M NaCl. The eluted antibodies are assayed on HIV western blot commercial stripes (SORIN BIOMEDICA, Saluggia, Italy) and detected using the chemio-luminescence system from […]. […] Lane M is obtained from one of the “in toto” sera and used as control.
The same test is carried out using two sera of AIDS affected patients (FIG. 6), pre-adsorbed with the S. MAP HIV peptide (lanes A and B) or with the HIV 9 peptide (lanes C and D), and eluted.
Background: In western blotting, separated proteins are transferred to a membrane and probed.

For assay [1], the target named is recombinant gp160 protein (Human immunodeficiency virus type 1 group M subtype B, UniProt P03377). The note with it: BALB/c female mice, subcutaneous, Freund's incomplete adjuvant, after third immunization; compared with control peptide serum (NMS); FIG. 1. Here is the method:
S.MAP HIV and S. MAP HLA peptides are injected subcutaneously to BALB/c female mice together with Freund's incomplete adjuvant. After the third immunization (for a total of three immunizations at three week intervals) mice sera are tested by an ELISA assay with the recombinant gp160 protein (from Transgene, Strasbourg) as follows: microtiter plastic wells (NUNC) are coated with 0.2 μg of protein resuspended in phospahte buffer pH 9, for 1.5 hours at 37° C., followed by washing with phosphate buffer pH 7, and by further incubating for 1 hour at 37° C. with bovine serum albumin (BSA, 1 mg/ml), to saturate the free sites of solid phase. After three washings, diluted sera in PBS, comprising BSA 1% w/v, are incubated with the coated wells for 1 hour at 37° C. After five washings in PBS, a rabbit anti-mouse Igs serum (SIGMA), 1/1000 diluted, is added. After 45 min. incubation at 37° C., wells are washed five times and 100 μl of chromogen substrate is added to each well (SORIN BIOMEDICA, Saluggia, Italy). The adsorbance is read with an automatic ELISA reader (BIORAD).

For assay [2], the system named is syncytium between HIV infected 8E51 LAV cells and not infected CD4+ MOLT3 cells. Kind of assay: Syncytium formation inhibition assay. The assay is classed as cell-based. The note with it: mice sera; pre-immunization sera as specificity control; FIG. 9.
Description: In order to check the ability to neutralize the viral infection of sera raised against the HLA homologous regions, mice sera are prepared by immunization with either S. MAP HLA or S. MAP HIV peptides. Sera are assayed for antibody ability to inhibit syncytium cells between HIV infected cells (8E51 LAV cells, AIDS Repository National Insitute of Health, Bethesda, Md. USA, “Journ. Exp. Medicine, 164, 280, 1986) and not infected, CD4+ cells (MOLT3 cells, AIDS Repository National Institute of Health, Bethesda, Md., USA). The syncytiums are counted at the optical microscope and the inhibition percentages are evaluated with reference to syncytiums in a control antibody-free cell culture. As specifity control, sera of mice before immunization are used.

T1 sequence (P03377 33-861): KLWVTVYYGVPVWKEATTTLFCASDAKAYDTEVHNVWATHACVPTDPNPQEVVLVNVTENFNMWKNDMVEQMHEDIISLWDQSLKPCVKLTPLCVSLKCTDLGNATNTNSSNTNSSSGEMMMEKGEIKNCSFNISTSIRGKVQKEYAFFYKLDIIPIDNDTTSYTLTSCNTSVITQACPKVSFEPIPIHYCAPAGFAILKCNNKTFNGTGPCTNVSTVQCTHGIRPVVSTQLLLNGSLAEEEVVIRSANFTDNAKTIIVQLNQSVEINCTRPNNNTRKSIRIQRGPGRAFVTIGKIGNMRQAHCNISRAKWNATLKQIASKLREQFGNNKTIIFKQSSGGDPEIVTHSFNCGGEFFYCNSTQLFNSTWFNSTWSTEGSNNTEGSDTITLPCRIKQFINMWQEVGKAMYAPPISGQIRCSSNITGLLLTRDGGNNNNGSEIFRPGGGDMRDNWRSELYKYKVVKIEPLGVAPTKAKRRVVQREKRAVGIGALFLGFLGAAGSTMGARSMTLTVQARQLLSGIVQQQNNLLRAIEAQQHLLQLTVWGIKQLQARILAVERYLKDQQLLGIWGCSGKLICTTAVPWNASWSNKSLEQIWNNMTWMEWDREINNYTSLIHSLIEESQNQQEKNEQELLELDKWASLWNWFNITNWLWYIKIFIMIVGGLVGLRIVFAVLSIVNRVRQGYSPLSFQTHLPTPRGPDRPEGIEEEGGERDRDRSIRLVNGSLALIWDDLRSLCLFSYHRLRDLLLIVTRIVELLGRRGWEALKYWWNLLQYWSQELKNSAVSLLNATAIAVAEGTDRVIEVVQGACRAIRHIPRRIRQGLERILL
Sequence of recombinant gp160 protein (P03377 33-861): as above

For IEPLGVAPT [MAP HIV 9], on viral gp160, the “binding to viral gp160 of AIDS serum antibodies pre-adsorbed on the peptide and eluted” value (from here on “binding to viral gp160”) is “do not show any reactivity”; the “reactivity of sera / antibodies raised against native gp160 in HIV positive subjects with the peptide region” value is “none of sera from HIV positive subjects are reactive”.

As for NLRKLRGYY [MAP HLA 12], at viral gp160 (one serum, lane E, FIG. 5), the “binding to a 45 KD protein (likely HLA heavy chains) of AIDS serum antibodies pre-adsorbed on the peptide” value was “also bind to a 45 KD protein”. Further, the “binding to viral gp160” value at viral gp160 was “bind similarly to the viral gp160”. As for PTKAKRRVV [MAP HIV 12], the “reactivity of sera / antibodies raised against native gp160 in HIV positive subjects with the peptide region” value with viral gp160 was “react”. Same read-out and setting: with SELYKYKVVK [MAP HIV 11] the entry was “react”. Turning to SELYKYKVVKIEPLGVAPTKAKRRVV [S. MAP HIV], in assay [1], the “reaction of sera of peptide immunized mice with the recombinant gp160 protein” value is “react at significantly higher level”. In addition, in assay [2], the “neutralization of viral fusion (syncytium inhibition) by antibodies of mice immunized with the peptide” value was “ability to neutralize the viral fusion”. For the same sequence, in the assay with viral gp160, the “binding to viral gp160” value is on record as “bind similarly to the viral gp160”. As to TQKYKRQAQ [MAP HLA 11], the “binding to viral gp160” value at viral gp160 was “bind similarly to the viral gp160”. For “TQKYKRQAQADRVNLRKLRGYY [S. MAP HLA, synthetic peptide from HLA class I heavy chain α-1 domain, allele Cw4]”, the “reaction of sera of peptide immunized mice with the recombinant gp160 protein” value in assay [1] is recorded as “react specifically”. Besides, in assay [2], the “neutralization of viral fusion (syncytium inhibition) by antibodies of mice immunized with the peptide” value is “same ability to neutralize the viral fusion”.
